Measurements reported in US20220119354A1, “DIAMINO-SUBSTITUTED PYRIDINES AND PYRIMIDINES AS HERBICIDES” (FMC Corporation, priority 2019, published 2022).

How the values were obtained:
Type in all cases: in vivo
[1] = test system: barnyardgrass (Echinochloa crus-galli); test: Test A preemergence, barnyardgrass; details: 0 to 100 scale; for Barnyardgrass plant response rating: 0 is no effect, 100 is complete control
How it was run: (§1)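 Compound, in a non-phytotoxic solvent blend containing surfactant, is sprayed onto soil immediately after sowing or onto young plants (one- to two-leaf, 2–10 cm). After roughly 10 d under greenhouse conditions, injury is judged by eye relative to untreated plants on a 0–100 control scale.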

kochia (Kochia scoparia) [2] = test: Test A preemergence, kochia; details: 0 to 100 scale; for Kochia plant response rating: 0 is no effect, 100 is complete control
How it was run: as §1

[3] = test system: ragweed (common ragweed, Ambrosia elatior); test: Test A preemergence, ragweed; details: 0 to 100 scale; for Ragweed plant response rating: 0 is no effect, 100 is complete control
How it was run: as §1

[4] = test system: ryegrass, Italian (Lolium multiflorum); test: Test A preemergence, Italian ryegrass; details: 0 to 100 scale; for Ryegrass, Italian plant response rating: 0 is no effect, 100 is complete control
How it was run: as §1

[5] = test system: foxtail, giant (Setaria faberii); test: Test A preemergence, giant foxtail; details: 0 to 100 scale; for Foxtail, Giant plant response rating: 0 is no effect, 100 is complete control
How it was run: as §1

[6] = test system: pigweed (Amaranthus retroflexus); test: Test A preemergence, pigweed; details: 0 to 100 scale; for Pigweed plant response rating: 0 is no effect, 100 is complete control
How it was run: as §1

[7] = test system: barnyardgrass (Echinochloa crus-galli); test: Test A postemergence, barnyardgrass; details: 0 to 100 scale
How it was run: as §1

kochia (Kochia scoparia) [8] = test: Test A postemergence, kochia; details: 0 to 100 scale
How it was run: as §1

[9] = test system: ragweed (common ragweed, Ambrosia elatior); test: Test A postemergence, ragweed; details: 0 to 100 scale
How it was run: as §1

[10] = test system: ryegrass, Italian (Lolium multiflorum); test: Test A postemergence, Italian ryegrass; details: 0 to 100 scale
How it was run: as §1

[11] = test system: foxtail, giant (Setaria faberii); test: Test A postemergence, giant foxtail; details: 0 to 100 scale
How it was run: as §1

[12] = test system: pigweed (Amaranthus retroflexus); test: Test A postemergence, pigweed; details: 0 to 100 scale
How it was run: as §1

[13] = test system: wheat (Triticum aestivum); test: Test A postemergence, wheat; details: 0 to 100 scale
How it was run: as §1

corn (Zea mays) = test: Test A postemergence, corn; details: 0 to 100 scale
How it was run: as §1

[14] = test system: blackgrass (Alopecurus myosuroides); test: Test A postemergence, blackgrass; details: 0 to 100 scale
How it was run: as §1

[15] = test system: galium (catchweed bedstraw, Galium aparine); test: Test A postemergence, galium; details: 0 to 100 scale
How it was run: as §1

rice (Oryza sativa) = test: Test B flooded paddy test, rice; details: Flood, 250 g ai/ha, applied to paddy water, 2-leaf stage, visual evaluation after 13 to 15 d
How it was run: (§2)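 Growth to two leaves preceded treatment. Flooding to 3 cm above soil surface, then water-applied compound; depth kept constant. Scored visually relative to controls after 13–15 d greenhouse; 100 means full control.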

[16] = test system: sedge, umbrella (small-flower umbrella sedge, Cyperus difformis); test: Test B flooded paddy test, umbrella sedge; details: Flood, 250 g ai/ha, applied to paddy water, 2-leaf stage, visual evaluation after 13 to 15 d
How it was run: as §2

[17] = test system: ducksalad (Heteranthera limosa); test: Test B flooded paddy test, ducksalad; details: Flood, 250 g ai/ha, applied to paddy water, 2-leaf stage, visual evaluation after 13 to 15 d
How it was run: as §2

[18] = test system: barnyardgrass (Echinochloa crus-galli); test: Test B flooded paddy test, barnyardgrass; details: Flood, 250 g ai/ha, applied to paddy water, 2-leaf stage, visual evaluation after 13 to 15 d
How it was run: as §2

[19] = 125 g ai/ha, 0 no effect, 100 complete control
[20] = 500 g ai/ha, 0 no effect, 100 complete control

In the case of `CCC(Nc1ncc(C(F)(F)F)c(N)n1)c1cc2ccccc2o1` (racemic) [Compound 28], the “Plant response rating, Barnyardgrass” value ([1]; 125 g ai/ha) is reported as 50, the “Plant response rating, Barnyardgrass” value ([1]; 500 g ai/ha) is reported as 90 and the “Plant response rating, Kochia” value (kochia (Kochia scoparia) [2]; 125 g ai/ha) is reported as 10. For the same compound, the “Plant response rating, Kochia” value (kochia (Kochia scoparia) [2]; 500 g ai/ha) was 90, the “Plant response rating, Ragweed” value ([3]; 125 g ai/ha) was 20 and the “Plant response rating, Ragweed” value ([3]; 500 g ai/ha) was 100. The “Plant response rating, Ryegrass, Italian” value ([4]; 125 g ai/ha) was 20, the “Plant response rating, Ryegrass, Italian” value ([4]; 500 g ai/ha) was 60 and the “Plant response rating, Foxtail, Giant” value ([5]; 125 g ai/ha) was 60. For the same compound, the “Plant response rating, Foxtail, Giant” value ([5]; 500 g ai/ha) was 90, the “Plant response rating, Pigweed” value ([6]; 125 g ai/ha) was 90 and the “Plant response rating, Pigweed” value ([6]; 500 g ai/ha) was 100. The “Plant response rating, Barnyardgrass” value ([7]; 125 g ai/ha) was 0, the “Plant response rating, Barnyardgrass” value ([7]; 500 g ai/ha) was 30 and the “Plant response rating, Kochia” value (kochia (Kochia scoparia) [8]; 125 g ai/ha) was 30. For the same compound, the “Plant response rating, Kochia” value (kochia (Kochia scoparia) [8]; 500 g ai/ha) was 80, the “Plant response rating, Ragweed” value ([9]; 125 g ai/ha) was 20 and the “Plant response rating, Ragweed” value ([9]; 500 g ai/ha) was 60. The “Plant response rating, Ryegrass, Italian” value ([10]; 125 g ai/ha) was 0, the “Plant response rating, Ryegrass, Italian” value ([10]; 500 g ai/ha) was 0 and the “Plant response rating, Foxtail, Giant” value ([11]; 125 g ai/ha) was 10. The “Plant response rating, Foxtail, Giant” value ([11]; 500 g ai/ha) was 40, the “Plant response rating, Pigweed” value ([12]; 125 g ai/ha) was 90 and the “Plant response rating, Pigweed” value ([12]; 500 g ai/ha) was 100. The “Plant response rating, Wheat” value ([13]; 125 g ai/ha) was 0, the “Plant response rating, Wheat” value ([13]; 500 g ai/ha) was 10 and the “Plant response rating, Corn” value (corn (Zea mays); 125 g ai/ha) was 0. For the same compound, the “Plant response rating, Corn” value (corn (Zea mays); 500 g ai/ha) was 80, the “Plant response rating, Blackgrass” value ([14]; 125 g ai/ha) was 10 and the “Plant response rating, Blackgrass” value ([14]; 500 g ai/ha) was 80. The “Plant response rating, Galium” value ([15]; 125 g ai/ha) was 70, the “Plant response rating, Galium” value ([15]; 500 g ai/ha) was 90 and the “Plant response rating, Rice (0 to 100 scale, 0 is no effect, 100 is complete control)” value (rice (Oryza sativa)) was 20. The “Plant response rating, Sedge, Umbrella (0 to 100 scale, 0 is no effect, 100 is complete control)” value [16] was 100, the “Plant response rating, Ducksalad (0 to 100 scale, 0 is no effect, 100 is complete control)” value [17] was 75 and the “Plant response rating, Barnyardgrass (0 to 100 scale, 0 is no effect, 100 is complete control)” value [18] was 0.

`CC(Nc1ncc(C(F)(F)F)c(N)n1)c1cc2c(Cl)cccc2o1` (stereo not drawn) [Compound 100] was tested, and the “Barnyardgrass plant response rating” value ([1]; 125 g ai/ha) was 60, the “Barnyardgrass plant response rating” value ([1]; 500 g ai/ha) was 90 and the “Kochia plant response rating” value (kochia (Kochia scoparia) [2]; 125 g ai/ha) was 90. The “Kochia plant response rating” value (kochia (Kochia scoparia) [2]; 500 g ai/ha) was 90, the “Ragweed plant response rating” value ([3]; 125 g ai/ha) was 50 and the “Ragweed plant response rating” value ([3]; 500 g ai/ha) was 100. For the same compound, the “Ryegrass, Italian plant response rating” value ([4]; 125 g ai/ha) was 0, the “Ryegrass, Italian plant response rating” value ([4]; 500 g ai/ha) was 90 and the “Foxtail, Giant plant response rating” value ([5]; 125 g ai/ha) was 90. The “Foxtail, Giant plant response rating” value ([5]; 500 g ai/ha) was 100, the “Pigweed plant response rating” value ([6]; 125 g ai/ha) was 100 and the “Pigweed plant response rating” value ([6]; 500 g ai/ha) was 100. The “Plant response rating, Barnyardgrass” value [7, 19] was 30, the “Plant response rating, Barnyardgrass” value [7, 20] was 90 and the “Plant response rating, Kochia” value (kochia (Kochia scoparia) [8]; [19]) was 60. For the same compound, the “Plant response rating, Kochia” value (kochia (Kochia scoparia) [8]; [20]) was 100, the “Plant response rating, Ragweed” value [9, 19] was 60 and the “Plant response rating, Ragweed” value [9, 20] was 100. For the same compound, the “Plant response rating, Ryegrass, Italian” value [10, 19] was 40, the “Plant response rating, Ryegrass, Italian” value [10, 20] was 70 and the “Plant response rating, Foxtail, Giant” value [11, 19] was 20. For the same compound, the “Plant response rating, Foxtail, Giant” value [11, 20] was 50, the “Plant response rating, Pigweed” value [12, 19] was 100 and the “Plant response rating, Pigweed” value [12, 20] was 100. For the same compound, the “Plant response rating, Wheat” value [13, 19] was 50, the “Plant response rating, Wheat” value [13, 20] was 40 and the “Plant response rating, Corn” value (corn (Zea mays); [19]) was 0. The “Plant response rating, Corn” value (corn (Zea mays); [20]) was 20, the “Plant response rating, Blackgrass” value [14, 19] was 30 and the “Plant response rating, Blackgrass” value [14, 20] was 70. The “Plant response rating, Galium” value [15, 19] was 100, the “Plant response rating, Galium” value [15, 20] was 100 and the “Plant response rating, Rice (0 to 100 scale, 0 is no effect, 100 is complete control)” value (rice (Oryza sativa)) was 0. For the same compound, the “Plant response rating, Sedge, Umbrella (0 to 100 scale, 0 is no effect, 100 is complete control)” value [16] was 35, the “Plant response rating, Ducksalad (0 to 100 scale, 0 is no effect, 100 is complete control)” value [17] was 20 and the “Plant response rating, Barnyardgrass (0 to 100 scale, 0 is no effect, 100 is complete control)” value [18] was 45.

`Nc1nc(N[C@@H](c2coc3ccccc23)C2CC2)ncc1C(F)(F)F` [Compound 79, N2-[(R)-3-benzofuranylcyclopropylmethyl]-5-(trifluoromethyl)-2,4-pyrimidinediamine] was tested, and the “Barnyardgrass plant response rating” value ([1]; 125 g ai/ha) was 90, the “Barnyardgrass plant response rating” value ([1]; 500 g ai/ha) was 100 and the “Kochia plant response rating” value (kochia (Kochia scoparia) [2]; 125 g ai/ha) was 0. For the same compound, the “Kochia plant response rating” value (kochia (Kochia scoparia) [2]; 500 g ai/ha) was 0, the “Ragweed plant response rating” value ([3]; 125 g ai/ha) was 100 and the “Ragweed plant response rating” value ([3]; 500 g ai/ha) was 100. The “Ryegrass, Italian plant response rating” value ([4]; 125 g ai/ha) was 100, the “Ryegrass, Italian plant response rating” value ([4]; 500 g ai/ha) was 100 and the “Foxtail, Giant plant response rating” value ([5]; 125 g ai/ha) was 100. The “Foxtail, Giant plant response rating” value ([5]; 500 g ai/ha) was 100, the “Pigweed plant response rating” value ([6]; 125 g ai/ha) was 90 and the “Pigweed plant response rating” value ([6]; 500 g ai/ha) was 100. For the same compound, the “Plant response rating, Barnyardgrass” value [7, 19] was 70, the “Plant response rating, Barnyardgrass” value [7, 20] was 100 and the “Plant response rating, Kochia” value (kochia (Kochia scoparia) [8]; [19]) was 90. For the same compound, the “Plant response rating, Kochia” value (kochia (Kochia scoparia) [8]; [20]) was 90, the “Plant response rating, Ragweed” value [9, 19] was 80 and the “Plant response rating, Ragweed” value [9, 20] was 90. The “Plant response rating, Ryegrass, Italian” value [10, 19] was 60, the “Plant response rating, Ryegrass, Italian” value [10, 20] was 80 and the “Plant response rating, Foxtail, Giant” value [11, 19] was 60. For the same compound, the “Plant response rating, Foxtail, Giant” value [11, 20] was 90, the “Plant response rating, Pigweed” value [12, 19] was 100 and the “Plant response rating, Pigweed” value [12, 20] was 100. For the same compound, the “Plant response rating, Wheat” value [13, 19] was 0, the “Plant response rating, Wheat” value [13, 20] was 20 and the “Plant response rating, Corn” value (corn (Zea mays); [19]) was 0. For the same compound, the “Plant response rating, Corn” value (corn (Zea mays); [20]) was 70, the “Plant response rating, Blackgrass” value [14, 19] was 60 and the “Plant response rating, Blackgrass” value [14, 20] was 90. For the same compound, the “Plant response rating, Galium” value [15, 19] was 70, the “Plant response rating, Galium” value [15, 20] was 90 and the “Plant response rating, Rice (0 to 100 scale, 0 is no effect, 100 is complete control)” value (rice (Oryza sativa)) was 10. For the same compound, the “Plant response rating, Sedge, Umbrella (0 to 100 scale, 0 is no effect, 100 is complete control)” value [16] was 95, the “Plant response rating, Ducksalad (0 to 100 scale, 0 is no effect, 100 is complete control)” value [17] was 98 and the “Plant response rating, Barnyardgrass (0 to 100 scale, 0 is no effect, 100 is complete control)” value [18] was 55.
